Reference: patent US8324273B2 (XenoPort, Inc., priority 2006, dated 2012)
Values belong to the compound of their own block, whether it stands above or below them.

Columns and labels:
[1] = Hygroscopicity of crystalline hydrogen fumarate (21) crystallized from various solvents; assay type: physicochemical
Experimental: (1R)-2-Acetyloxy-1-methylethyl (2S)-2-amino-3-[3,4-bis(ethoxycarbonyloxy)phenyl]propanoate hydrogen fumarate (21) was crystallized using the solvents listed in Table 1 on a 100 mg scale.

[2] = following oral administration of NB-355; cited from earlier work
[3] = Intracolonic bioavailability of levodopa prodrugs in monkeys; assay type: in vivo, male Cynomologous monkeys; settings: male, monkey, whole blood, intravenous, 10 mg; read-out: mean AUCinf
Experimental: Male Cynomologous monkeys weighing about 3.0 kg were used in the studies. Monkeys are fasted overnight prior to the study until 4 hours after dosing. Water was provided ad libitum.
Carbidopa was prepared as a solution (0.72 mg/mL) in sodium acetate buffer pH 5.16.
Blood samples were collected at pre-dose and at 0.17, 0.25, 0.5, 0.75, 1, 2, 4, 6, 8, 12, and 24 hours post-dose. About 0.3 mL of blood was collected in pre-chilled K2EDTA tubes containing 100 μL of 10% sodium metabisulfite. The contents were gently vortexed at low speed to ensure that the sampled blood came into contact with sodium metabisulfite while maintaining ice on the samples at all times. About 0.1 mL of the anticoagulated blood was added to each of 2 pre-chilled cryovials that each contained about 0.3 mL of quenching media (89.3% v/v methanol and 10.7% v/v 4N perchloric acid) within 5 minutes of bleed. Within 30 minutes of blood collection, the samples were centrifuged at about 3,000 rpm, 4° C., for 10 min. The samples were then stored at −70° C.
Blood samples were analyzed as described in Example 30.

melting point: 78.1 to 80.7 °C | Hygroscopicity ([1]; crystallized from acetonitrile-methyl tert-butyl ether): None | Hygroscopicity ([1]; crystallized from ethyl acetate): None | Hygroscopicity ([1]; crystallized from ethyl acetate-diisopropyl ether): None | Hygroscopicity ([1]; crystallized from ethyl acetate-methyl tert-butyl ether): None
Compound: CCOC(=O)Oc1ccc(C[C@H](N)C(=O)O[C@H](C)COC(C)=O)cc1OC(=O)OCC.O=C(O)/C=C/C(=O)O [Compound 21, (1R)-2-Acetyloxy-1-methylethyl (2S)-2-Amino-3-[3,4-bis(ethoxycarbonyloxy)phenyl]propanoate Hydrogen Fumarate]

Compound: CC(C)(C)C(=O)Oc1ccc(C[C@H](N)C(=O)O)cc1O [NB-355]
duration of circulating levodopa [2]: prolonged | plasma concentrations of levodopa [2]: low

AUC(0-inf) [3]: 3690 ng·h/mL
Compound: N[C@@H](Cc1ccc(O)c(O)c1)C(=O)O [levodopa, L-3,4-dihydroxyphenylalanine]
